Where a name gives a salt, the structure may show the parent alone. Read-outs that look alike come from different tables or passages of the source.
Experiments:
[1] = system: white bone marrow (WBM) cells
Method: (§1) For all examples, treatments of the mice were carried out either by i.t. (intra-tracheal) instillation or i.p. injection. For i.t. instillation, 60 μl of treatment solution of saline or saline plus 175 mM HCl or HOAc was instilled into the trachea of a mouse using a pipet tip. For i.p. injection, 200 μl of saline or saline plus 87.5 mM HCl, HOAc or NaOH was injected into the peritoneal cavity of a mouse using a 26 or 27G needle. At the time of the first treatment the body weights of the mice ranged about 19 to 30 g.
(§2) Cells were washed 3 times with PBS then stained with Zombie viability dyes at room temperature for 20 minutes. At the end of incubation, 10% volume of FBS was added to absorb excess Zombie dyes. After washes, the cells were stained with conjugated antibodies against surface antigens on ice. As specified in some experiments, the cells were subsequently stained with fluorochrome-conjugated Avidin. For Annexin V staining, cells were washed twice with plain PBS and once with Annexin V binging buffer (10 mM HEPES, pH7.4, 140 mM NaCl, 2.5 mM CaCl2)) after surface antigen staining, and incubated with fluorochrome-conjugated Annexin V in Annexin V binding buffer for 15 min at room temperature. The cells were washed twice in Annexin V binding buffer and resuspended in Annexin V binding buffer. 7-AAD was added to the cells before analyzed by flow cytometry. For Ki-67 and Foxp3 staining, lymphocytes (after Zombie dye and surface antigen staining) or tumor cells (without surface antigen staining) were fixed and permeabilized using Foxp3 staining buffer kit, then stained with PE-conjugated anti-mouse or human Ki-67 antibodies. (Biolegend, San Diego, Calif., USA). Stained and unstained cells were analyzed on Accuri C6 Flow Cytomer (Accuri Cytometers, Inc., Ann Arbor, Mich.), FACS Canto (BD Bioscience, San Jose, Calif., USA) and Attune™ cytometer (Invitrogen, Carlsbad, Calif.). Data analyses were carried out using FlowJo X.
To provide an example of this aspect of the present invention, C57BL/6 mice received i.p. treatments with saline or saline plus NaOH every other day for a total of 3 doses. Bone marrows were extracted from both tibias on day 1 or 3 after the final treatment.

[2] = system: granulocytes and lymphocytes in the blood; conditions: RBC-depleted blood
[3] = system: lymphocytes, eosinophils, macrophages in BALF; neutrophils in blood
Method: as §2

Raji cells = assay: In vitro treatment of Raji tumor cells in FBS
Method: Jurkat and Raji tumor cell lines were maintained in Complete RPMI-1640 Medium (RPMI-1640 plus 1× GlutaMAX, 100 U/ml Pen-Strep (Gibco Life Technologies, Grand Island, N.Y., USA), and 5% heat-inactivated fetal bovine serum (FBS) (Atlanta Biologicals, Flowery Branch, Ga., USA)) at 37° C. and 5% CO2. The tumor cells were washed 3 times with saline plus 1% FBS before in vitro treatments with saline or saline plus pH modifiers.
For studies of the effects of pH modifier on proliferating cells, primary thymocytes or lymph node cells (4×10^6 cells/ml) were incubated in FBS comprising 10% of saline or 87.5 mM HCl, HOAc or NaOH prepared in saline in 37° C. water bath for 5 hours before analyses. The tumor cells (2×10^6 cells/ml) were incubated in FBS comprising 10% saline or 87.5 mM HCl, HOAc, or NaOH prepared in saline in 37° C. water bath for 3-5 hours.
Cells were washed 3 times with PBS then stained with Zombie viability dyes at room temperature for 20 minutes. At the end of incubation, 10% volume of FBS was added to absorb excess Zombie dyes. […] 7-AAD was added to the cells before analyzed by flow cytometry. […] Stained and unstained cells were analyzed on Accuri C6 Flow Cytomer (Accuri Cytometers, Inc., Ann Arbor, Mich.), FACS Canto (BD Bioscience, San Jose, Calif., USA) and Attune™ cytometer (Invitrogen, Carlsbad, Calif.). […]

[4] = system: lesions of allergic contact dermatitis
[5] = system: C57BL/6 mice immunized with MOG35-55 (EAE)
[6] = system: white bone marrow (WBM) cells; conditions: for Ki-67hi cells in bone marrow B lineage (CD19+) cells: i.p. x3, 1 day after third treatment, saline 5.59%; for Ki-67hi cells in non-B lineage cells of non-granulocyte WBM cells: i.p. x3, saline 11.5%
Method: as §1, §2
Like lymph nodes, bone marrow is one of the most common sites for tumor metastasis. (106). In addition, primary tumors or tumor-like lesions can also occur in the bone. (107). […] In this example, C57BL/6 mice were treated with i.p. injection of saline, or saline plus HCl or HOAc every other day for 3 times. Bone marrow cells were extracted from both tibias 1 day after the third treatment for the study of B lineage cells, and for the studies of other cell types 3 days after the third i.p. treatment with saline or saline plus HOAc, and alternatively, mice received one i.t. injection of saline or saline plus HOAc, bone marrow was extracted from tibias the next day.

[7] = about 5.25M in water, topical 4 times a day, day 1

[Na+].[OH-] [NaOH, sodium hydroxide]
Ki-67hi cells in B lineage cells ([1]; day 1, saline 4.85%): 24.8%
Ki-67hi cells in non-B lineage cells ([1]; day 1, saline 11.2%): 35.3%
Ki-67lo cells in B lineage cells ([1]; day 1, saline 34.7%): 61.6%
Ki-67hi MPP ([1]; day 3, saline 0%): 2.54%
percentage of T (CD3+) cells in WBM cells ([1]; day 3, saline 0.69%): 0.87%
Sca-1+ c-kit+ stem cells in Lin- WBM cells ([1]; day 3, saline 0.81%): 1.74%
Ki-67hi cells in T cells ([1]; day 3, saline 2.86%): 11.6%
Ki-67hi HSC ([1]; day 3, saline 6.67%): 15.6%
Ki-67neg TER-119+ cells ([1]; day 3, saline 7.11%): 6.72%
percentage of TER-119+ cells in lymphoid and myeloid negative WBM cells ([1]; day 3, saline 14.6%): 17.5%
percentage of CD11c+ TCR- cells in WBM cells ([1]; day 3, saline 18.4%): 64%
Ki-67lo cells in T cells ([1]; day 3, saline 20%): 28.7%
Ki-67lo MPP ([1]; day 3, saline 21.9%): 30.7%
Ki-67lo TER-119+ cells ([1]; day 3, saline 25.3%): 16%
Ki-67+ cells within the Ly6G+ population ([1]; day 3, saline 33.7%): 43.6%
Ki-67+ cells in CD11c+ TCR- cells ([1]; day 3, saline 39.5%): 70.1%
percentage of Ly6G+ cells in WBM cells ([1]; day 3, saline 42.4%): 57.7%
Ki-67hi TER-119+ cells ([1]; day 3, saline 67%): 76.2%
increase of average total number of WBM cells vs saline ([1]; i.p. x3, both tibias): 88%
percentage of CD19+ B lineage cells in non-granulocyte WBM cells ([1]; one day after three i.p. treatments, saline about 11%): 17%
average percentage of WBM cells in total bone marrow cells ([1]; saline less than 14%): over 29%
tolerance of i.t. instillation (mice): poorly tolerant

CC(=O)O [HOAc, acetic acid]
percentage of lymphocytes in blood ([2]; saline 22.9%): 13.6%
percentage of granulocytes in blood ([2]; saline 32.6%): 1.1%
apoptotic (Annexin V+7-AAD+) macrophages in BALF ([3]; i.t. after 3rd challenge, saline 0.71%): 56.4%
apoptotic (Annexin V+7-AAD+) eosinophils in BALF ([3]; i.t. after 3rd challenge, saline 2.87%): 95.2%
apoptotic (Annexin V+7-AAD+) lymphocytes in BALF ([3]; i.t. after 3rd challenge, saline 3.15%): 85.3%
apoptotic neutrophils (Ly6G high) in blood ([3]; saline 7.61%): 38.4%
viability (live cells) of Raji cells (Raji cells; human, 8.75 mM): 48.9%
rash in lesion 2 [4, 7]: almost completely disappeared
rashes in lesion 1 [4, 7]: partially disappeared
rashes in both lesions ([4]; by day 2 and day 3, treated day 0 and day 1): completely disappeared
rate of disease onset (mice with EAE) ([5]; day 2 after initiation of i.p. treatment, saline 50%): 30%
maximum rate of disease onset ([5]; reached 5 days after initiation, saline 80% on day 3): 60%
Ki-67hi cells in bone marrow T (CD3+) cells ([6]; i.p. treated, saline 4.21%): 2.46%
Ki-67hi HSC ([6]; i.p. treated, saline 11.1%): no Ki-67^hi HSC were detected
Ki-67hi cells in erythroid (TER-119+) lineage cells ([6]; i.p. treated, saline 72.3%): 46.9%
Ki-67hi cells in bone marrow B lineage (CD19+) cells [6]: 3.3%
Ki-67hi cells in non-B lineage cells of non-granulocyte WBM cells [6]: 5.11%
Ki-67hi cells in bone marrow T (CD3+) cells ([6]; i.t. treated, one injection, saline 4.88%): 2.44%
Ki-67hi HSC ([6]; i.t. treated, saline 5.56%): no Ki-67^hi HSC were detected
Ki-67hi cells in erythroid (TER-119+) lineage cells ([6]; i.t. treated, saline 67.3%): 33.3%

Cl [HCl, hydrochloric acid]
viability (live cells) of Raji cells (Raji cells; FBS with 10% of 87.5 mM modifier, 37° C., 3-5 hours, saline 89.4%): 49.2%
Ki-67hi cells in bone marrow B lineage (CD19+) cells [6]: 2.83%
Ki-67hi cells in non-B lineage cells of non-granulocyte WBM cells [6]: 6.34%
